How the values were obtained:
Experiment in all cases: KINOMEscan competition binding
Conditions in all cases: compound 10.0 µM
ACVR1 (human) = ACVR1 (human) (UniProt Q04771)
BMPR1B (human) = BMPR1B (human) (UniProt O00238)
CAMK1D (human) = CAMK1D (human) (UniProt Q8IU85)
CAMKK1 (human) = CAMKK1 (human) (UniProt Q8N5S9)
CDK8 (human) = CDK8 (human) (UniProt P49336)
CDKL2 (human) = CDKL2 (human) (UniProt Q92772)
CRK2 (P.falciparum) = CRK2 (P.falciparum) (UniProt P61075)
CSNK1G3 (human) = CSNK1G3 (human) (UniProt Q9Y6M4)
DAPK1 (human) = DAPK1 (human) (UniProt P53355)
DAPK3 (human) = DAPK3 (human) (UniProt O43293)
Sequence of DAPK3 (human) (O43293 whole entry, looked up): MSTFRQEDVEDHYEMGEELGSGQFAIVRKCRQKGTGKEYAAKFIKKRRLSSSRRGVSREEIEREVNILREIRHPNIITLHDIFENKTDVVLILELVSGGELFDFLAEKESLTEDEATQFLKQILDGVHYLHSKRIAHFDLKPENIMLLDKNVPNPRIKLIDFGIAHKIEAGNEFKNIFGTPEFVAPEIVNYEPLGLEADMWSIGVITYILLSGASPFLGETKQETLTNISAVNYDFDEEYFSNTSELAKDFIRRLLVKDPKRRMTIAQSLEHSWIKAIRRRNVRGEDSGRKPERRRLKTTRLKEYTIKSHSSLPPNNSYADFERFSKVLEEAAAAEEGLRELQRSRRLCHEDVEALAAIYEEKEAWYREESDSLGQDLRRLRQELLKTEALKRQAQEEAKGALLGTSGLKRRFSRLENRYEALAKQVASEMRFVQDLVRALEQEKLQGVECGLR

ERN1 (human) = ERN1 (human) (UniProt O75460)
[1] = test system: FLT3 (human), P36888 [D835H]
GRK1 (human) = GRK1 (human) (UniProt Q15835)
Sequence of GRK1 (human) (Q15835 whole entry, looked up): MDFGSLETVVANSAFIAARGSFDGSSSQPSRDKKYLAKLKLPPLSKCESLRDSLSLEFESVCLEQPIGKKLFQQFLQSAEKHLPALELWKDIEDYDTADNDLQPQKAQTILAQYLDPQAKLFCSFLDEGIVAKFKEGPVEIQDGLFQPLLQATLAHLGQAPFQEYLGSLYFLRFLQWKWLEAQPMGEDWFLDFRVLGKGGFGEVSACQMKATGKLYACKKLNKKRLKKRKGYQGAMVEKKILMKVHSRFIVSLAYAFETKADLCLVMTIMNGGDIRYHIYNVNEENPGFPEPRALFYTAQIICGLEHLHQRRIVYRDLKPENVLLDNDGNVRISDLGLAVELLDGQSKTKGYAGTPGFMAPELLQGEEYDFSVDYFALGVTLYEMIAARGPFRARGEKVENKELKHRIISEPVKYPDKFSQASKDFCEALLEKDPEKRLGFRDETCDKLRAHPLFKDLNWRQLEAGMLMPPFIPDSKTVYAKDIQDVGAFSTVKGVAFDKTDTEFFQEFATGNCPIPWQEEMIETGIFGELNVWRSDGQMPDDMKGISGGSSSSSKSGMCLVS

GRK4 (human) = GRK4 (human) (UniProt P32298)
Sequence of GRK4 (human) (P32298 whole entry, looked up): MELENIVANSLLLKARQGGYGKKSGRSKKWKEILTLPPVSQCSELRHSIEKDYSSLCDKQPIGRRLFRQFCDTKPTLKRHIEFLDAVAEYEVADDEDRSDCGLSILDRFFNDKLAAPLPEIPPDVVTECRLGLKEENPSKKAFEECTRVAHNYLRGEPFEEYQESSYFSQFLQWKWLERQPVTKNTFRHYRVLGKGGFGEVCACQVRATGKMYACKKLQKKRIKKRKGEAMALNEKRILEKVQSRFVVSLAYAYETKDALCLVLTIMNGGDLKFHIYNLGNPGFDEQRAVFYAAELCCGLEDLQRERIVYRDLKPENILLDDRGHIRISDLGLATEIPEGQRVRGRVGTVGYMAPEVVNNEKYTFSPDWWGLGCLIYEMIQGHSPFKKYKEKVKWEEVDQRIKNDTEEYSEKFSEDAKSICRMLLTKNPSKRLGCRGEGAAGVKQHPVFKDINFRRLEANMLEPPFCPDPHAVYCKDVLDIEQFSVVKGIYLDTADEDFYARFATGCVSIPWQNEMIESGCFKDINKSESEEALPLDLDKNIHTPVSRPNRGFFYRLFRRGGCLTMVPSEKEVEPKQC

IKBKB (human) = IKBKB (human) (UniProt O14920)
Sequence of IKBKB (human) (O14920 whole entry, looked up): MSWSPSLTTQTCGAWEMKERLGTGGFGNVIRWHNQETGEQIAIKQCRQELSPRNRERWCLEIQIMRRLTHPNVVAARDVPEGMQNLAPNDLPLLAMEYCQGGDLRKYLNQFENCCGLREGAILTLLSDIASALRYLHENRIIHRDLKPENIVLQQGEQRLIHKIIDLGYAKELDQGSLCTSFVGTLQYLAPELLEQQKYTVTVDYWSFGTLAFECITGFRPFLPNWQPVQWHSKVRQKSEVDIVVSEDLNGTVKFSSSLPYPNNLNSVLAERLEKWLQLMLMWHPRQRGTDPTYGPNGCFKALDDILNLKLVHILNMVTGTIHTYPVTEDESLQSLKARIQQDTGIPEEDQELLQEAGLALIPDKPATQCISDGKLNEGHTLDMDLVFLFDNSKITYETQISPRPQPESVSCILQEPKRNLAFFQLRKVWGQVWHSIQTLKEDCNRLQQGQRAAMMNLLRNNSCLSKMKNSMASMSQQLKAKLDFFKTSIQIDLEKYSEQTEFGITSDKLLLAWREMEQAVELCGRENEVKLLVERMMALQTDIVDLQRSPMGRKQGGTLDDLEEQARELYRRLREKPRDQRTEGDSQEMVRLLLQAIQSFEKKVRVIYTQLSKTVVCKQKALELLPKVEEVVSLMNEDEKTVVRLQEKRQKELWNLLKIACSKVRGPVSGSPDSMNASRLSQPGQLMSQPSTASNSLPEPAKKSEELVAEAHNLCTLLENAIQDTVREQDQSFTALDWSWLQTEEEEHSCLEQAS

IKBKE (human) = IKBKE (human) (UniProt Q14164)
Sequence of IKBKE (human) (Q14164 whole entry, looked up): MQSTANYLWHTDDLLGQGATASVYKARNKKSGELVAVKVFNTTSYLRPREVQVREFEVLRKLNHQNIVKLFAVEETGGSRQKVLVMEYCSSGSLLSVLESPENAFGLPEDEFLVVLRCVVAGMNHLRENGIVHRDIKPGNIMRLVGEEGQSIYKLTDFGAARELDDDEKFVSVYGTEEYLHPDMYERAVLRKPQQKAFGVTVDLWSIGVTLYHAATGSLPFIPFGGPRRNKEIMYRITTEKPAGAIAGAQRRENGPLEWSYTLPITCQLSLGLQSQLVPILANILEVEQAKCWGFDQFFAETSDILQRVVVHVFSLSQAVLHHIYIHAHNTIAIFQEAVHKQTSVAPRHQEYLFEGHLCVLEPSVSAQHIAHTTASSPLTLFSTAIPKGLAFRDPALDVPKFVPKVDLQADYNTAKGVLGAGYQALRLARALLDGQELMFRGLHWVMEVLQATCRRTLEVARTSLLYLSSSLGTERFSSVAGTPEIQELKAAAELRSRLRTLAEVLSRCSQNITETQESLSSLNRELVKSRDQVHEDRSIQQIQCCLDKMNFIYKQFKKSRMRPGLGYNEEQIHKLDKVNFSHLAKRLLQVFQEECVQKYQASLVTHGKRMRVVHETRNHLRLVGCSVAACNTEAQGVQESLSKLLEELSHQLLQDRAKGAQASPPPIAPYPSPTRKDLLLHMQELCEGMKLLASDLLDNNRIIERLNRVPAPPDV

[2] = test system: KIT (human), P10721 [A829P]
[3] = test system: KIT (human), P10721 [V559D]
MAP4K5 (human) = MAP4K5 (human) (UniProt Q9Y4K4)
Sequence of MAP4K5 (human) (Q9Y4K4 whole entry, looked up): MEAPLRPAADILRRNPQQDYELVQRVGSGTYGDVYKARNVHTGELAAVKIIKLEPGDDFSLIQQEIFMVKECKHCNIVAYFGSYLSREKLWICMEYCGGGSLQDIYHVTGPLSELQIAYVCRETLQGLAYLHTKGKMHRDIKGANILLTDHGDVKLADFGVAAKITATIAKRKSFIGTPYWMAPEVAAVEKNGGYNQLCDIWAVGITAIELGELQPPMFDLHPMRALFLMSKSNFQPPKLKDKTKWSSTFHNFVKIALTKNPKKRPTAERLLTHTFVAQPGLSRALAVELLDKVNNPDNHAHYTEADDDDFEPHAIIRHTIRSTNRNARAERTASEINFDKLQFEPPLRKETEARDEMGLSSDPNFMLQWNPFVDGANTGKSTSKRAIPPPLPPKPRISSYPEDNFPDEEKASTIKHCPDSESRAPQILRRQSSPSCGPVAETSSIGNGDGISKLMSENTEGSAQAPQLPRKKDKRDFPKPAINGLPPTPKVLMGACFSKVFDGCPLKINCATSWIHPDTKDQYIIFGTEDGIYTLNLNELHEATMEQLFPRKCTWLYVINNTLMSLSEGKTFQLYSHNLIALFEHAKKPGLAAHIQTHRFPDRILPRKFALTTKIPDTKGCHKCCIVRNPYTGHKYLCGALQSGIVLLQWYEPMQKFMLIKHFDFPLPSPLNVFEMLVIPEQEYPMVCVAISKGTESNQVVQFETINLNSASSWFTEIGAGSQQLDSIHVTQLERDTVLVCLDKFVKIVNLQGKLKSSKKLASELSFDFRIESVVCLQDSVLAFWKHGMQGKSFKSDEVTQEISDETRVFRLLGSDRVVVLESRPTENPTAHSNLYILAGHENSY

MAPK10 (human) = MAPK10 (human) (UniProt P53779)
MAPK12 (human) = MAPK12 (human) (UniProt P53778)
Sequence of MAPK12 (human) (P53778 whole entry, looked up): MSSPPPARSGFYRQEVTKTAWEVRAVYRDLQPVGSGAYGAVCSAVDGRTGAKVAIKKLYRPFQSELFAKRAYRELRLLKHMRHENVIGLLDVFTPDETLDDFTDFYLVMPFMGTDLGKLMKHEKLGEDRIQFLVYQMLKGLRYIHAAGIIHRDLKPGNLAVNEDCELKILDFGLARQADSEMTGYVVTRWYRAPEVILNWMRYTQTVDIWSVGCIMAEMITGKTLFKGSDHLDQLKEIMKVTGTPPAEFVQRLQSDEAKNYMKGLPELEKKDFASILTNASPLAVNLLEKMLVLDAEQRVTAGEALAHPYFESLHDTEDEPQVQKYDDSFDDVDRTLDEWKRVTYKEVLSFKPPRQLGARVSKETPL

MAPK14 (human) = MAPK14 (human) (UniProt Q16539)
MAPK8 (human) = MAPK8 (human) (UniProt P45983)
MERTK (human) = MERTK (human) (UniProt Q12866)
MET (human) = MET (human) (UniProt P08581)
[4] = test system: MET (human), P08581 [M1250T]
PAK4 (human) = PAK4 (human) (UniProt O96013)
PI4KB (human) = PI4KB (human) (UniProt Q9UBF8)
PIK3CD (human) = PIK3CD (human) (UniProt O00329)
PRKG1 (human) = PRKG1 (human) (UniProt Q13976)
PRKG2 (human) = PRKG2 (human) (UniProt Q13237)
PTK6 (human) = PTK6 (human) (UniProt Q13882)
RIOK3 (human) = RIOK3 (human) (UniProt O14730)
SGK3 (human) = SGK3 (human) (UniProt Q96BR1)
STK32B (human) = STK32B (human) (UniProt Q9NY57)
Sequence of STK32B (human) (Q9NY57 whole entry, looked up): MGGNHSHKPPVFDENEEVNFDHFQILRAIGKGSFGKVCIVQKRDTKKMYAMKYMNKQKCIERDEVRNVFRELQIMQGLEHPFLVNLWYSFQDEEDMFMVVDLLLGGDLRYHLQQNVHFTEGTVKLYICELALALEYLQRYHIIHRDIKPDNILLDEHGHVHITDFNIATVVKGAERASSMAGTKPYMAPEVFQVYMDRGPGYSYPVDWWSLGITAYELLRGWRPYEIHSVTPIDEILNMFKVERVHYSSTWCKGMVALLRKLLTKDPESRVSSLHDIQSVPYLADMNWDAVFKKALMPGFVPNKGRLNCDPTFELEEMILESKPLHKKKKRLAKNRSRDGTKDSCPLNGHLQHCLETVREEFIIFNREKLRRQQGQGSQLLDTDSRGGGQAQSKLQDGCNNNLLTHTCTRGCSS

STK39 (human) = STK39 (human) (UniProt Q9UEW8)
SYK (human) = SYK (human) (UniProt P43405)
TLK2 (human) = TLK2 (human) (UniProt Q86UE8)
TNIK (human) = TNIK (human) (UniProt Q9UKE5)
[5] = molecular target: TYK2 JH2 pseudokinase (human) (UniProt P29597)
WEE1 (human) = WEE1 (human) (UniProt P30291)

Sequence of CRK2 (P.falciparum) (P61075 whole entry, looked up): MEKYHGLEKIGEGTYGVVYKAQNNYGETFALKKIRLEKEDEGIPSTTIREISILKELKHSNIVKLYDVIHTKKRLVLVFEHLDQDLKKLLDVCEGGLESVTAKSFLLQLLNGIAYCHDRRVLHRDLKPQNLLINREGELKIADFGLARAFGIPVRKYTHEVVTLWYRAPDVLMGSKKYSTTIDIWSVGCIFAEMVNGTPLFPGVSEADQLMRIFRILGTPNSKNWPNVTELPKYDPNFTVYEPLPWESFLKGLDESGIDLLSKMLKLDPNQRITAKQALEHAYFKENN

With COc1cc(C(=O)N2CCC(N3CCN(C)CC3)CC2)ccc1Nc1ncc2c(n1)N(C)c1ccccc1C(=O)N2C the kinase still bound, per cent of control (ACVR1 (human)) was 98%, the kinase still bound, per cent of control (BMPR1B (human)) was 76% and the kinase still bound, per cent of control (CAMK1D (human)) was 69%. The kinase still bound, per cent of control (CAMKK1 (human)) was 73%, the residual activity (CDK8 (human)) was 100% and the residual activity (CDKL2 (human)) was 100%. The kinase still bound, per cent of control (CRK2 (P.falciparum)) was 100%, the kinase still bound, per cent of control (CSNK1G3 (human)) was 93% and the kinase still bound, per cent of control (DAPK1 (human)) was 73%. For the same molecule, the kinase still bound, per cent of control (DAPK3 (human)) was 67%, the kinase still bound, per cent of control (ERN1 (human)) was 59% and the kinase still bound, per cent of control [1] was 100%. It also gave a kinase still bound, per cent of control (GRK1 (human)) of 91%, a kinase still bound, per cent of control (GRK4 (human)) of 86% and a kinase still bound, per cent of control (IKBKB (human)) of 89%. For the same molecule, the kinase still bound, per cent of control (IKBKE (human)) was 96%, the kinase still bound, per cent of control [2] was 100% and the kinase still bound, per cent of control [3] was 100%. The kinase still bound, per cent of control (MAP4K5 (human)) was 100%, the kinase still bound, per cent of control (MAPK10 (human)) was 77% and the kinase still bound, per cent of control (MAPK12 (human)) was 76%. The kinase still bound, per cent of control (MAPK14 (human)) was 87%, the kinase still bound, per cent of control (MAPK8 (human)) was 95% and the kinase still bound, per cent of control (MERTK (human)) was 100%. It also gave a kinase still bound, per cent of control (MET (human)) of 100%, a kinase still bound, per cent of control [4] of 96% and a kinase still bound, per cent of control (PAK4 (human)) of 94%. For the same molecule, the kinase still bound, per cent of control (PI4KB (human)) was 95%, the kinase still bound, per cent of control (PIK3CD (human)) was 62% and the kinase still bound, per cent of control (PRKG1 (human)) was 98%. The kinase still bound, per cent of control (PRKG2 (human)) was 74%, the kinase still bound, per cent of control (PTK6 (human)) was 58% and the kinase still bound, per cent of control (RIOK3 (human)) was 85%. The kinase still bound, per cent of control (SGK3 (human)) was 95%, the kinase still bound, per cent of control (STK32B (human)) was 100% and the residual activity (STK39 (human)) was 39%. It also gave a kinase still bound, per cent of control (SYK (human)) of 100%, a kinase still bound, per cent of control (TLK2 (human)) of 99% and a kinase still bound, per cent of control (TNIK (human)) of 100%. For the same molecule, the kinase still bound, per cent of control [5] was 100% and the kinase still bound, per cent of control (WEE1 (human)) was 100%.

— the kinase profiling compilation of Christmann-Franck et al. (2016)
